{"source": "paper PMC8219695", "about": "(Nature Communications, 2021)", "key": {"[1]": {"molecular_target": "hKOR (Homo sapiens, UniProt P41145)", "test": "CAMYEL BRET cAMP agonist assay at hKOR", "type": "cell-based", "details": "individual replicates, Supplementary Figure 8A source data"}, "[2]": {"molecular_target": "T1, hMOR (Homo sapiens, UniProt P35372)", "T1 construct": "expressed in transfected cells; plasmid a gift from Dr. Nevin Lambert", "test": "CAMYEL BRET cAMP agonist assay at hMOR", "type": "cell-based", "details": "for cAMP %: hMOR, single replicates, source data Fig 6c, listed as C11-F-7OH (22)"}, "[3]": {"molecular_target": "T2, mDOR (Mus musculus, UniProt P32300)", "T2 construct": "expressed in transfected cells", "test": "[125I]BNtxA radioligand competition binding, mouse DOR", "details": "mean ± SEM, n = 3; [125I]BNtxA; read-out: Ki ± SEM mDOR"}, "[4]": {"molecular_target": "T3, mMOR (Mus musculus, UniProt P42866)", "T3 construct": "signal peptide (heterologous, not specified) (N); expressed in transfected cells; pcDNA3.1(+) construct made in house", "test": "CAMYEL BRET antagonism assay at mMOR (inhibition of DAMGO);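 for Antagonist activity at mMOR, raw signal (single replicate values): BRET signal rises as cAMP falls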", "type": "cell-based", "details": "for Antagonist activity at mMOR, raw signal (single replicate values): source data of Fig 8a and Table 5, listed as C11-F-7OH (22)"}, "[5]": {"molecular_target": "T4, mKOR (Mus musculus, UniProt P33534)", "T4 construct": "expressed in transfected cells; membranes", "test": "[125I]BNtxA radioligand competition binding, mouse KOR", "details": "mean ± SEM, n = 3; [125I]BNtxA; read-out: Ki ± SEM mKOR"}, "[6]": {"molecular_target": "T1, hMOR", "test": "cell-based"}, "[7]": {"molecular_target": "T3, mMOR", "test": "[125I]BNtxA radioligand competition binding, mouse MOR", "details": "mean ± SEM, n = 3; [125I]BNtxA; read-out: Ki ± SEM mMOR"}, "[8]": {"molecular_target": "T5, rKOR (Rattus norvegicus, UniProt P34975)", "T5 construct": "expressed in transfected cells", "test": "CAMYEL BRET cAMP agonist assay at rKOR", "type": "cell-based", "details": "individual replicates, Supplementary Figure 8B source data"}, "[9]": {"molecular_target": "hDOR (Homo sapiens, UniProt P41143)", "test": "CAMYEL BRET cAMP agonist assay at hDOR", "type": "cell-based", "details": "for Agonist activity of 7OH analogs at hDOR: single replicate values, Supplementary Figure 7A"}}, "note": "Values joined by “and” are separate entries in the source; they are usually repeats but may differ in a detail not shown here. Equal values may be shown once."}
{"smiles": "CC[C@@H]1CN2CC[C@@]3(O)C(=Nc4cc(F)cc(OC)c43)[C@@H]2C[C@@H]1/C(=C\\OC)C(=O)OC", "note": "[11-F-7OH (22), 11-Fluoro-7-hydroxymitragynine]", "values": [{"measurement": "Agonist activity of 7OH analogs at hKOR", "setting": "[1]; Log [drug](M) -5", "value": "12.7288 and 7.6957 and 5.691 and 5.203 and 10.1397 and 6.346 and 11.5584 and 16.2136 and 8.114"}, {"measurement": "Agonist activity of 7OH analogs at hKOR", "setting": "[1]; Log [drug](M) -6", "value": "4.1678 and -6.234 and -2.623 and -0.4626 and 5.449 and 14.973 and 13.878 and 7.062 and 8.9598"}, {"measurement": "Agonist activity of 7OH analogs at hKOR", "setting": "[1]; Log [drug](M) -7", "value": "15.7968 and 0.7988 and 22.403 and -2.445 and 4.302 and 10.7854 and 12.9808 and 8.955 and 17.6223"}, {"measurement": "Agonist activity of 7OH analogs at hKOR", "setting": "[1]; Log [drug](M) -8", "value": "4.851 and -3.884 and -5.474 and 6.013 and -0.3123 and 2.012 and 9.524 and 10.5291 and 12.8743"}, {"measurement": "Agonist activity of 7OH analogs at hKOR", "setting": "[1]; Log [drug](M) -9", "value": "-6.272 and 9.969 and -14.9547 and 3.87 and -4.029 and 4.071 and 2.29 and -8.644 and 9.488"}, {"measurement": "Agonist activity of 7OH analogs at hKOR", "setting": "[1]; Log [drug](M) -10", "value": "-8.62 and -13.3054 and -5.371 and -6.566 and 5.6803 and 0.6674 and -0.4006 and -4.716 and 0.9825"}, {"measurement": "Agonist activity of 7OH analogs at hKOR", "setting": "[1]; Log [drug](M) -11", "value": "-18.0186 and -16.1556 and -9.7654 and -4.481 and 6.079 and -3.726 and -2.3334 and -2.856 and -4.795"}, {"measurement": "Agonist activity of 7OH analogs at hKOR", "setting": "[1]; Log [drug](M) -13", "value": "2.027 and -5.796 and 3.769 and 2.62 and 6.896 and -9.516 and -3.456 and 3.959 and -0.5033"}, {"measurement": "EC50", "setting": "[2]", "value": 29.4, "unit": "nM"}, {"measurement": "Emax", "setting": "[2]", "value": 57, "unit": "%"}, {"measurement": "cAMP %", "setting": "[2]; Log[drug] (M) -5", "value": "51.264% and 45.9513% and 58.1795% and 79.6476% and 68.1188% and 65.3013% and 52.2398% and 64.2986% and 49.6622%"}, {"measurement": "cAMP %", "setting": "[2]; Log[drug] (M) -6", "value": "56.7369% and 57.602% and 54.9333% and 67.8605% and 67.5648% and 53.8544% and 46.4412% and 33.3921% and 44.9213%"}, {"measurement": "cAMP %", "setting": "[2]; Log[drug] (M) -7", "value": "48.1791% and 37.8893% and 39.1827% and 53.5374% and 50.3292% and 51.3541% and 36.9409% and 28.5036% and 44.2511%"}, {"measurement": "cAMP %", "setting": "[2]; Log[drug] (M) -8", "value": "15.2392% and 22.4344% and 23.7656% and 25.1778% and 17.6434% and 19.3494% and 5.0692% and 13.2412% and 14.3735%"}, {"measurement": "cAMP %", "setting": "[2]; Log[drug] (M) -9", "value": "4.113% and -7.3719% and 5.178% and 7.448% and -11.6959% and 4.5476% and -1.276% and -3.182% and 19.3939%"}, {"measurement": "cAMP %", "setting": "[2]; Log[drug] (M) -10", "value": "2.241% and -1.74% and -0.501% and 4.727% and -5.3691% and 0.6426% and 5.237% and 2.017% and 7.517%"}, {"measurement": "cAMP %", "setting": "[2]; Log[drug] (M) -11", "value": "9.244% and 1.716% and -4.082% and 4.12% and 6.65% and 8.68% and 7.357% and 0.1804% and -7.538%"}, {"measurement": "cAMP %", "setting": "[2]; Log[drug] (M) -13, cAMP inhibition as % of DAMGO", "value": "3.279% and -3.532% and 2.642% and -0.9485% and 1.819% and 3.865% and 2.979% and -0.05442% and 0.9166%"}, {"measurement": "Ki", "setting": "[3]", "value": "35.8 ± 2", "unit": "nM"}, {"measurement": "IC50", "setting": "[4]", "value": 260, "unit": "nM"}, {"measurement": "Antagonist activity at mMOR, raw signal (single replicate values)", "setting": "[4]; Log[drug] (M) -5", "value": "0.03322 and 0.03306 and 0.04505 and 0.03409 and 0.04171 and 0.03584 and 0.0591 and 0.05619 and 0.05325"}, {"measurement": "Antagonist activity at mMOR, raw signal (single replicate values)", "setting": "[4]; Log[drug] (M) -6", "value": "0.06086 and 0.0551 and 0.06302 and 0.07276 and 0.06512 and 0.0766 and 0.06642 and 0.06116 and 0.08827"}, {"measurement": "Antagonist activity at mMOR, raw signal (single replicate values)", "setting": "[4]; Log[drug] (M) -7", "value": "0.1571 and 0.1681 and 0.1534 and 0.1529 and 0.1704 and 0.1581 and 0.1507 and 0.1426 and 0.1477"}, {"measurement": "Antagonist activity at mMOR, raw signal (single replicate values)", "setting": "[4]; Log[drug] (M) -8", "value": "0.2123 and 0.2016 and 0.2091 and 0.1893 and 0.2024 and 0.2047 and 0.1631 and 0.1656 and 0.156"}, {"measurement": "Antagonist activity at mMOR, raw signal (single replicate values)", "setting": "[4]; Log[drug] (M) -9", "value": "0.2046 and 0.2165 and 0.2136 and 0.191 and 0.2101 and 0.1873 and 0.1659 and 0.1752 and 0.1707"}, {"measurement": "Antagonist activity at mMOR, raw signal (single replicate values)", "setting": "[4]; Log[drug] (M) -10", "value": "0.2086 and 0.2076 and 0.2154 and 0.2091 and 0.201 and 0.211 and 0.1814 and 0.1819 and 0.178"}, {"measurement": "Antagonist activity at mMOR, raw signal (single replicate values)", "setting": "[4]; Log[drug] (M) -11", "value": "0.2091 and 0.1929 and 0.2264 and 0.2001 and 0.2059 and 0.2094 and 0.1761 and 0.1779 and 0.1909"}, {"measurement": "Ki", "setting": "[5]", "value": "21 ± 3.2", "unit": "nM"}, {"measurement": "IC50", "setting": "[6]", "value": 590, "unit": "nM"}, {"measurement": "Ki", "setting": "[7]", "value": "13.7 ± 1", "unit": "nM"}, {"measurement": "Agonist activity of 7OH analogs at rKOR", "setting": "[8]; Log [drug](M) -5", "value": "22.082 and 29.1799 and 24.9804 and 9.107 and 13.0188 and 13.182 and 6.083 and 2.973 and 4.112"}, {"measurement": "Agonist activity of 7OH analogs at rKOR", "setting": "[8]; Log [drug](M) -6", "value": "13.2987 and 25.9578 and 3.4416 and 5.534 and 11.6761 and -0.5648 and 7.283 and 13.1071 and 4.997"}, {"measurement": "Agonist activity of 7OH analogs at rKOR", "setting": "[8]; Log [drug](M) -7", "value": "18.031 and 31.9599 and 33.0367 and -2.212 and 3.5973 and -1.385 and 1.635 and 2.31 and 9.2799"}, {"measurement": "Agonist activity of 7OH analogs at rKOR", "setting": "[8]; Log [drug](M) -8", "value": "5.787 and -5.909 and 29.0355 and 11.9094 and 9.551 and -12.1962 and 10.3961 and -3.525 and 1.154"}, {"measurement": "Agonist activity of 7OH analogs at rKOR", "setting": "[8]; Log [drug](M) -9", "value": "2.374 and 3.557 and 1.503 and 17.2927 and 4.288 and -5.051 and 9.998 and -1.969 and -2.384"}, {"measurement": "Agonist activity of 7OH analogs at rKOR", "setting": "[8]; Log [drug](M) -10", "value": "1.539 and 1.5713 and -3.1102 and 5.6014 and 10.9469 and 10.7639 and 2.853 and 4.901 and 1.67"}, {"measurement": "Agonist activity of 7OH analogs at rKOR", "setting": "[8]; Log [drug](M) -11", "value": "-1.844 and 21.6085 and 6.867 and 10.1299 and 11.9047 and -4.025 and 6.309 and -3.657 and -2.652"}, {"measurement": "Agonist activity of 7OH analogs at rKOR", "setting": "[8]; Log [drug](M) -13", "value": "18.2754 and 7.8104 and 16.2642 and 12.0322 and 1.984 and 9.1095 and -1.886 and 4.583 and -1.369"}, {"measurement": "Agonist activity of 7OH analogs at hDOR", "setting": "[9]; Log[drug] (M) -5", "value": "35.2154 and 37.8271 and 20.1668 and 20.0459 and 27.5701 and 32.2497 and 21.4666 and 22.179 and 20.5682"}, {"measurement": "Agonist activity of 7OH analogs at hDOR", "setting": "[9]; Log[drug] (M) -6", "value": "34.2535 and 17.385 and 29.3707 and 32.2245 and 19.3851 and 24.4275 and 22.3041 and 14.4734 and 13.6453"}, {"measurement": "Agonist activity of 7OH analogs at hDOR", "setting": "[9]; Log[drug] (M) -7", "value": "30.3483 and 21.8663 and 22.0325 and 12.2379 and 10.9328 and 13.3432 and 3.216 and 7.058 and 2.651"}, {"measurement": "Agonist activity of 7OH analogs at hDOR", "setting": "[9]; Log[drug] (M) -8", "value": "2.89 and -16.6078 and 13.7181 and 1.455 and 8.915 and -8.089 and -4.58 and 2.715 and 18.3397"}, {"measurement": "Agonist activity of 7OH analogs at hDOR", "setting": "[9]; Log[drug] (M) -9", "value": "8.34 and 5.8475 and -3.905 and -8.29 and 12.1949 and 6.438 and 2.013 and 5.417"}, {"measurement": "Agonist activity of 7OH analogs at hDOR", "setting": "[9]; Log[drug] (M) -10", "value": "4.091 and -4.63 and 8.526 and 11.2871 and -1.147 and 9.891 and 2.3909 and 3.977 and 19.4184"}, {"measurement": "Agonist activity of 7OH analogs at hDOR", "setting": "[9]; Log[drug] (M) -11", "value": "-7.5527 and 10.3457 and 6.839 and 6.552 and 7.529 and 1.024 and 18.8483 and 4.15 and -0.7846"}, {"measurement": "Agonist activity of 7OH analogs at hDOR", "setting": "[9]; Log[drug] (M) -13", "value": "-0.5197 and 3.103 and 0.8755 and 5.994 and 5.535 and -9.529 and 9.805 and -0.2765"}, {"measurement": "EC50", "setting": "[9]; hDOR cAMP BRET, read-out: EC50", "value": 151, "unit": "nM"}, {"measurement": "Emax", "setting": "[9]; read-out: Emax", "value": 26, "unit": "%"}]}
